Data: publication PMC4278221, “Territrem and Butyrolactone Derivatives from a Marine-Derived Fungus Aspergillus Terreus” (Marine Drugs, 2014)
≈ marks a conversion by molar mass, not a printed value. Like-named read-outs stand apart in the source and are kept apart here.

Key:
HSV-1 = assay: Anti-HSV-1 plaque reduction assay in Vero cell monolayers; assay type: cell-based; settings: 72 h, read-out: Anti-HSV-1 IC50
Protocol: The antiviral activities of 1–17 towards HSV-1 were evaluated using plaque reduction assay for the first time.
(§1) Cytotoxic activity was evaluated using Vero cell lines by the MTT method. Anti-HSV-1 activity was determined by plaque assay using monolayer cultures of Vero cells in 24-well culture plates (Corning, New York, NY, USA). Virus suspension containing HSV-1 (30 plaque forming units (PFU)/well) was added to the cell wells and incubated at 37 °C with 5% CO2 for 2 h. The virus inoculum was then removed and overlay medium (maintenance medium containing 1% methylcellulose and various concentrations of tested compound) was added to each well. After another 72 h of incubation, the cell monolayers were fixed with 10% formalin and stained with 1% crystal violet. Plaques were counted and the percentage of inhibition was calculated according to literature. The concentration reducing plaque numbers by 50% was calculated by regression analysis of the dose–response curves generated from the plaque assay and was defined as 50% inhibitory concentration (IC50).

Vero cell line = assay: Cytotoxic activity against Vero cell line by MTT method; assay type: cell-based; settings: non-cytotoxic concentration (TC0)
Protocol: as §1

[1] = tested on: barnacle Balanus amphitrite larvae; assay: Barnacle Balanus amphitrite larval settlement bioassay (antifouling); settings: for EC50: Amphibalanus amphitrite, 24 h, read-out: Antifouling Against B. Amphitrite EC50; for LC50/EC50 values: antifouling activity at nontoxic concentrations, B. amphitrite larvae
Protocol: Larval settlement bioassays were performed using sterile 24-well polystyrene plates. Tested samples were dissolved in DMSO to a concentration of 50 μg·mL^−1 for preliminary bioassay. […] About 20 competent larvae were added to each well in 1 mL of the test solution. The experiment was repeated twice with four replicateseach time. Wells containing only FSW with DMSO served as the controls. The plates were incubated at 27 °C for 24 h. The percentage of larval settlement was determined by counting the settled, live individuals under a dissecting microscope and expressing the result as a proportion of the total number of larvae in the well. Statistical calculations were performed with the SPSS software package.

AChE = biological target: T1, AChE (Homo sapiens, UniProt P22303); assay: biochemical
T1 construct: purchased Sigma
Protocol: The inhibitory activities against AChE of compounds were investigated in vitro using the modified Ellman method. Briefly, the reaction mixture containing 20 μL of a different concentrations of the test compunds dissolved in DMSO solution, 450 μL of reaction buffer (0.01 M phosphate buffer, pH 7.0), 10 μL of 0.08-0.10 units/mL AChE (Sigma, one unit hydrolyzes […] of acetylcholineto choline and acetate per min at pH 7.0, 37 °C) and 10 μL of 0.01 M DTNB (Sigma, St. Louis, MO, USA) were filled in a microwell of 24-well polystyrene plate and incubated for 30 min at 37 °C. After preincubation, The reaction was started by adding 20 μL of 0.01 M ATCh (Sigma, St. Louis, MO, USA) solution in 0.01 M phosphate buffer (pH 7.0). Colorimetric measurements (412 nm) were performed on a enspire multimode microplate reader (varioskan flash, Thermo, Waltham, MA, USA). For determining the blank value, the 20 μL of test compound solution was instead of 20 μL of DMSO solution. Each concentration was analyzed in triplicate. […] IC50 values were determined graphically from the regression analysis of concentration-inhibition curves. The IC50 values are the mean ± standard deviations of three independent experiments.

[2] = Human alphaherpesvirus 1, plaque reduction assay in Vero cells, under non-cytotoxic concentrations (TC0)

T1 sequence (P22303 32-614): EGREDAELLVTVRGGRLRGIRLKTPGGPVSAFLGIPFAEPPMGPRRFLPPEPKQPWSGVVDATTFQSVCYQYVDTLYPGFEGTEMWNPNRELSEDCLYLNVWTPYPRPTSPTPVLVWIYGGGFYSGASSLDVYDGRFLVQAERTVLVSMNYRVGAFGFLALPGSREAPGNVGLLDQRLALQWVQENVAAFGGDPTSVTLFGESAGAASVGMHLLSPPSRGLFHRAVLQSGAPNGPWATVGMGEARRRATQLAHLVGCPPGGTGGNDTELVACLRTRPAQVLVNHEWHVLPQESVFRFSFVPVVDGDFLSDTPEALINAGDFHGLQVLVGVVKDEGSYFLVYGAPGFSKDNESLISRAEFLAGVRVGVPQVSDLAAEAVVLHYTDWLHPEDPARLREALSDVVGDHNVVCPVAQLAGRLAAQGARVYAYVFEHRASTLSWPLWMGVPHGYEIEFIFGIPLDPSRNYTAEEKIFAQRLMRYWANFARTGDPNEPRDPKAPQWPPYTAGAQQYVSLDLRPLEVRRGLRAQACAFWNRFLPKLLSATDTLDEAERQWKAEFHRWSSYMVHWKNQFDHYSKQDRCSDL

Row | Compound | IC50 (HSV-1; [2]) | Cytotoxicity Against Vero TC0 (Vero cell line) | EC50 [1] | LC50/EC50 values [1] | IC50 (AChE) | further results
1 | Nc1nc2c(ncn2COCCO)c(=O)[nH]1 [Acyclovir, reference compound] | 34.5 ± 0.7 µg/mL (≈ 153 µM) | >1000 µg/mL |  |  |  | 
2 | COc1cc(-c2cc3c(c(=O)o2)C[C@]2(O)[C@@]4(C)C(=O)C=CC(C)(C)[C@]4(O)CC[C@@]2(C)O3)cc(O)c1OC [Compound 1, territrem D] |  | 25 µg/mL | 12.9 ± 0.5 µg/mL (≈ 25.2 µM) | > 100 µg/mL | 0.0042 ± 0.0006 µM | 
3 | COc1cc(-c2cc3c(c(=O)o2)C[C@]2(O)[C@@]4(C)C(=O)C=CC(C)(C)[C@]4(O)CC[C@@]2(C)O3)ccc1O [Compound 2, territrem E] |  | 200 µg/mL |  |  |  | IC50 (AChE; modified Ellman method, pH 7.0, 37 °C, mean ± SD of three independent experiments, read-out: Anti-AChE IC50): 0.0045 ± 0.0006 µM
4 | COc1ccc(-c2cc3c(c(=O)o2)C[C@H]2[C@@](C)(CC[C@@]4(O)C(C)(C)OC(=O)CC[C@]24C)O3)cc1 [Compound 3, 11a-dehydroxyisoterreulactone A] | 16.4 ± 0.6 µg/mL (≈ 35 µM) | 200 µg/mL |  |  |  | 
5 | COc1cc(-c2cc3c(c(=O)o2)C[C@]2(O)[C@@]4(C)C(=O)C=CC(C)(C)[C@]4(O)CC[C@@]2(C)O3)cc(OC)c1OC [Compound 4, territrem B] |  | 25 µg/mL |  |  | 0.0042 ± 0.0006 µM | 
6 | COc1cc(-c2cc3c(c(=O)o2)C[C@]2(O)[C@@]4(C)C(=O)C=CC(C)(C)[C@]4(O)CC[C@@]2(C)O3)cc(OC)c1O [Compound 5, territrem C] |  | >25 µg/mL |  |  | 0.0201 ± 0.0033 µM | 
7 | COc1ccc(-c2cc3c(c(=O)o2)C[C@]2(O)[C@@]4(C)C(=O)C=CC(C)(C)[C@]4(O)CC[C@@]2(C)O3)cc1OC [Compound 6, arisugacin A] |  | 100 µg/mL |  |  | 0.0119 ± 0.0021 µM | IC50 (HSV-1; Human alphaherpesvirus 1, Vero): 6.34 ± 0.4 µg/mL (≈ 12.8 µM)
8 | COc1ccc(-c2cc3c(c(=O)o2)C[C@]2(O)[C@@]4(C)[C@@H](O)C[C@@H](OC(C)=O)C(C)(C)[C@]4(O)CC[C@@]2(C)O3)cc1 [Compound 7, arisugacin H] |  | 100 µg/mL |  |  |  | IC50 (AChE; modified Ellman method, value printed in μM in text, read-out: Anti-AChE IC50): 5.7 ± 0.8 µM
9 | COc1ccc(-c2cc3c(c(=O)o2)C[C@]2(O)[C@@]4(C)CCC(=O)C(C)(C)[C@]4(O)CC[C@@]2(C)O3)cc1 [Compound 8, terreulactone C] |  | >25 µg/mL |  |  | 0.05 ± 0.0015 µM | 
10 | COC1(Cc2ccc(O)cc2)OC(=O)C(O)=C1c1ccc(O)cc1 (stereo not shown) [Compound 10, isobutyrolactone II] | 21.8 ± 1.8 µg/mL (≈ 66.4 µM) | 200 µg/mL |  |  |  | 
11 | COC(=O)[C@]1(Cc2ccc3c(c2)C[C@H](O)C(C)(C)O3)OC(=O)C(O)=C1c1ccc(O)cc1 [Compound 11, butyrolactone V] |  |  | 22.1 ± 0.8 µg/mL (≈ 50.2 µM) | > 100 µg/mL |  | 
12 | COC(=O)[C@]1(Cc2ccc3c(c2)CCC(C)(C)O3)OC(=O)C(O)=C1c1ccc(O)cc1 [Compound 12, aspernolide A] | 28.9 ± 1.8 µg/mL (≈ 68.1 µM) | 100 µg/mL | 7.4 ± 0.6 µg/mL (≈ 17.4 µM) | > 100 µg/mL |  | 
13 | COC(=O)[C@]1(Cc2ccc(O)c(CCC(C)(C)O)c2)OC(=O)C(O)=C1c1ccc(O)cc1 [Compound 15, aspernolide B] |  |  | 16.1 ± 0.6 µg/mL (≈ 36.4 µM) | > 100 µg/mL |  | 
